Measured values: patent US9949479B2 (priority 2015, dated 2018)
Values joined by “and” are separate entries in the source; they are usually repeats but may differ in a detail not shown here. Identical values can stand only once. Like-named read-outs stand apart in the source and are kept apart here.

Columns and labels:
[1] = format: in vivo, wheat
[2] = tested on: powdery mildew; format: in vivo
[3] = format: in vivo, wheat; conditions: dose as in E162
[4] = tested on: leaf blight; format: in vivo
[5] = tested on: leaf blight; format: in vivo; remark: listed apart in the source
[6] = format: in vivo, wheat; remark: listed apart in the source
[7] = tested on: wheat scab; format: in vivo, Fusarium spp.
[8] = tested on: wheat scab; format: in vivo, Fusarium spp.; conditions: Serial 5: preparation 100 g/mu; jinggangmycin 20, metconazole 0 g ai./mu
[9] = set-up: species or system wheat; conditions: in vivo
[10] = tested on: powdery mildew; format: in vivo; conditions: dose as in E145
[11] = tested on: leaf rust fungus; format: in vivo; conditions: seed treatment; dose as in E133
[12] = tested on: leaf blight; format: in vivo; conditions: Serial 5: preparation 100 g/mu; jinggangmycin 20, metconazole 0 g ai./mu
[13] = tested on: rust; format: in vivo; conditions: dose as in E145
[14] = tested on: powdery mildew; format: in vivo; remark: listed apart in the source
[15] = tested on: rust; format: in vivo; conditions: dose as in E154
[16] = format: in vivo, barley; conditions: dose as in E154
[17] = tested on: rust; format: in vivo
[18] = tested on: leaf blight; format: in vivo; conditions: dose as in E154
[19] = tested on: wheat scab; format: in vivo, Fusarium spp.; conditions: Serial 5: preparation 100; jinggangmycin 20, metconazole 0 g ai./mu
[20] = tested on: powdery mildew; format: in vivo; conditions: Serial 5: preparation 100 g/mu; jinggangmycin 20, metconazole 0 g ai./mu
[21] = tested on: powdery mildew; format: in vivo; remark: listed apart in the source
[22] = tested on: leaf blight; format: in vivo; remark: listed apart in the source
[23] = tested on: rust; format: in vivo; remark: listed apart in the source
[24] = set-up: species or system wheat; conditions: in vivo; remark: listed apart in the source
[25] = tested on: wheat scab; format: in vivo, Fusarium spp.; remark: listed apart in the source
[26] = tested on: leaf blight; format: in vivo; conditions: Serial 5: preparation 100; jinggangmycin 20, metconazole 0 g ai./mu
[27] = tested on: powdery mildew; format: in vivo; remark: listed apart in the source
[28] = tested on: wheat scab; format: in vivo, Fusarium spp.; remark: listed apart in the source
[29] = tested on: wheat scab; format: in vivo, Fusarium spp.; remark: listed apart in the source
[30] = tested on: rust; format: in vivo; conditions: Serial 5: preparation 100 g/mu; jinggangmycin 20, metconazole 0 g ai./mu
[31] = Serial 5: preparation 75 g/mu, jinggangmycin 15 g ai./mu alone
[32] = Serial 6: preparation 60 g/mu, jinggangmycin 12 g ai./mu alone
[33] = Serial 7: preparation 45 g/mu, jinggangmycin 9 g ai./mu alone
[34] = Serial 8: preparation 30 g/mu, jinggangmycin 6 g ai./mu alone
[35] = Serial 11: jinggangmycin 36 g ai./mu alone
[36] = Serial 12: jinggangmycin 18 g ai./mu alone
[37] = Serial 13: jinggangmycin 15 g ai./mu alone
[38] = Serial 14: jinggangmycin 7.5 g ai./mu alone
[39] = Serial 15: jinggangmycin 5 g ai./mu alone
[40] = Serial 16: jinggangmycin 2.5 g ai./mu alone
[41] = Serial 17: jinggangmycin 3 g ai./mu alone
[42] = Serial 18: jinggangmycin 1.5 g ai./mu alone
[43] = Serial 19: jinggangmycin 1 g ai./mu alone
[44] = Serial 20: jinggangmycin 0.5 g ai./mu alone
[45] = Serial 5: preparation 50 g/mu, jinggangmycin 10 g ai./mu alone
[46] = Serial 6: preparation 37.5 g/mu, jinggangmycin 7.5 g ai./mu alone
[47] = Serial 7: preparation 15 g/mu, jinggangmycin 3 g ai./mu alone
[48] = Serial 5: preparation 100 g/mu, jinggangmycin 20 g ai./mu alone
[49] = Serial 6: preparation 80 g/mu, jinggangmycin 16 g ai./mu alone
[50] = Serial 7: preparation 40 g/mu, jinggangmycin 8 g ai./mu alone
[51] = Serial 8: preparation 20 g/mu, jinggangmycin 4 g ai./mu alone

Structure (SMILES): OCC1=C[C@H](NC2C[C@H](CO)[C@@H](OC3O[C@H](CO)[C@@H](O)[C@H](O)[C@H]3O)[C@H](O)[C@H]2O)[C@H](O)[C@@H](O)[C@@H]1O (stereo partly shown) [Jinggangmycin A, jinggangmycin A]
- Grain Toxin Content mg of DON/kg of grain [1, 31]: 2.86 mg of DON/kg of grain
- Toxin Reduction Percentage % [1, 31]: 36.7%
- Grain Toxin Content mg of DON/kg of grain [1, 32]: 3.82 mg of DON/kg of grain
- Toxin Reduction Percentage % [1, 32]: 15.5%
- Grain Toxin Content mg of DON/kg of grain [1, 33]: 4.02 mg of DON/kg of grain
- Toxin Reduction Percentage % [1, 33]: 11.1%
- Grain Toxin Content mg of DON/kg of grain [1, 34]: 4.14 mg of DON/kg of grain
- Toxin Reduction Percentage % [1, 34]: 8.4%
- Disease Index Prevention Effect % Powdery Mildew [2, 35]: 8.5%
- Disease Index Prevention Effect % Powdery Mildew [2, 36]: 7.8%
- Disease Index Prevention Effect % Powdery Mildew [2, 37]: 7.6%
- Disease Index Prevention Effect % Powdery Mildew [2, 38]: 0%
- Disease Index Prevention Effect % Powdery Mildew [2, 39]: 0%
- Disease Index Prevention Effect % Powdery Mildew [2, 40]: 0%
- Disease Index Prevention Effect % Powdery Mildew [2, 41]: 0%
- Disease Index Prevention Effect % Powdery Mildew [2, 42]: 0%
- Disease Index Prevention Effect % Powdery Mildew [2, 43]: 0%
- Disease Index Prevention Effect % Powdery Mildew [2, 44]: 0%
- Grain Toxin Content [3]: 2.89 μg/g of kernels and 3.24 μg/g of kernels and 3.86 μg/g of kernels and 4.20 μg/g of kernels and 4.77 μg/g of kernels
- Disease Index Prevention Effect % Leaf Blight [4, 45]: 8.6%
- Disease Index Prevention Effect % Leaf Blight [4, 46]: 8.8%
- Disease Index Prevention Effect % Leaf Blight [4, 47]: 5.8%
- Disease Index Prevention Effect % Leaf Blight [5, 35]: 5.8%
- Disease Index Prevention Effect % Leaf Blight [5, 36]: 5.0%
- Disease Index Prevention Effect % Leaf Blight [5, 37]: 4.6%
- Disease Index Prevention Effect % Leaf Blight [5, 38]: 0%
- Disease Index Prevention Effect % Leaf Blight [5, 39]: 0%
- Disease Index Prevention Effect % Leaf Blight [5, 40]: 0%
- Disease Index Prevention Effect % Leaf Blight [5, 41]: 0%
- Disease Index Prevention Effect % Leaf Blight [5, 42]: 0%
- Disease Index Prevention Effect % Leaf Blight [5, 43]: 0%
- Disease Index Prevention Effect % Leaf Blight [5, 44]: 0%
- Grain Toxin Content (mg of DON/Kg of grain) [6, 35]: 2.61 mg of DON/Kg of grain
- Rate of Decrease in Toxin Content in Grains (%) [6, 35]: 59.6%
- Grain Toxin Content (mg of DON/Kg of grain) [6, 36]: 2.86 mg of DON/Kg of grain
- Rate of Decrease in Toxin Content in Grains (%) [6, 36]: 55.7%
- Grain Toxin Content (mg of DON/Kg of grain) [6, 37]: 2.94 mg of DON/Kg of grain
- Rate of Decrease in Toxin Content in Grains (%) [6, 37]: 54.5%
- Grain Toxin Content (mg of DON/Kg of grain) [6, 38]: 3.42 mg of DON/Kg of grain
- Rate of Decrease in Toxin Content in Grains (%) [6, 38]: 47.1%
- Grain Toxin Content (mg of DON/Kg of grain) [6, 39]: 3.86 mg of DON/Kg of grain
- Rate of Decrease in Toxin Content in Grains (%) [6, 39]: 40.2%
- Grain Toxin Content (mg of DON/Kg of grain) [6, 40]: 3.92 mg of DON/Kg of grain
- Rate of Decrease in Toxin Content in Grains (%) [6, 40]: 39.3%
- Grain Toxin Content (mg of DON/Kg of grain) [6, 41]: 3.96 mg of DON/Kg of grain
- Rate of Decrease in Toxin Content in Grains (%) [6, 41]: 38.7%
- Grain Toxin Content (mg of DON/Kg of grain) [6, 42]: 4.82 mg of DON/Kg of grain
- Rate of Decrease in Toxin Content in Grains (%) [6, 42]: 25.4%
- Grain Toxin Content (mg of DON/Kg of grain) [6, 43]: 5.80 mg of DON/Kg of grain
- Rate of Decrease in Toxin Content in Grains (%) [6, 43]: 10.2%
- Grain Toxin Content (mg of DON/Kg of grain) [6, 44]: 5.86 mg of DON/Kg of grain
- Rate of Decrease in Toxin Content in Grains (%) [6, 44]: 9.3%
- Disease Index Prevention Effect % Head Blight [7, 48]: 32.0%
- Disease Index Prevention Effect % Head Blight [7, 49]: 25.4%
- Disease Index Prevention Effect % Head Blight [7, 50]: 14.7%
- Disease Index Prevention Effect % Head Blight [7, 51]: 0%
- Disease Index Prevention Effect % Head Blight [8]: 40.2%
- Thousand Kernel Weight [9]: 39.6 g and 39.0 g and 37.9 g
- Disease Index Prevention Effect % Powdery Mildew [10]: 7.5% and 4.5% and 0%
- Incidence Prevention Effect % Rust [11]: 0% and 4.5%
- Disease Index Prevention Effect % Leaf Blight [12]: 7.8%
- Disease Index Prevention Effect % Rust [13]: 4.9% and 3.8% and 0%
- Disease Index Prevention Effect % Powdery Mildew [14, 48]: 12.6%
- Disease Index Prevention Effect % Powdery Mildew [14, 49]: 11.9%
- Disease Index Prevention Effect % Powdery Mildew [14, 50]: 0%
- Disease Index Prevention Effect % Powdery Mildew [14, 51]: 0%
- Disease Index Prevention Effect % Rust [15]: 0%
- Grain Toxin Content [16]: 6.67 mg of DON/Kg of grain and 5.28 mg of DON/Kg of grain and 4.62 mg of DON/Kg of grain and 3.86 mg of DON/Kg of grain and 3.49 mg of DON/Kg of grain
- Disease Index Prevention Effect % Rust [17, 35]: 7.6%
- Disease Index Prevention Effect % Rust [17, 36]: 7.2%
- Disease Index Prevention Effect % Rust [17, 37]: 7.2%
- Disease Index Prevention Effect % Rust [17, 38]: 0%
- Disease Index Prevention Effect % Rust [17, 39]: 0%
- Disease Index Prevention Effect % Rust [17, 40]: 0%
- Disease Index Prevention Effect % Rust [17, 41]: 0%
- Disease Index Prevention Effect % Rust [17, 42]: 0%
- Disease Index Prevention Effect % Rust [17, 43]: 0%
- Disease Index Prevention Effect % Rust [17, 44]: 0%
- Disease Index Prevention Effect % Leaf Blight [18]: 0% and 6.9%
- Disease Index Prevention Effect % Head Blight [19]: 34.2%
- Disease Index Prevention Effect % Powdery Mildew [20]: 10.6%
- Disease Index Prevention Effect % Powdery Mildew [21, 31]: 8.6%
- Disease Index Prevention Effect % Powdery Mildew [21, 32]: 6.6%
- Disease Index Prevention Effect % Powdery Mildew [21, 33]: 3.0%
- Disease Index Prevention Effect % Powdery Mildew [21, 34]: 1.8%
- Disease Index Prevention Effect % Leaf Blight [22, 48]: 8.6%
- Disease Index Prevention Effect % Leaf Blight [22, 49]: 8.8%
- Disease Index Prevention Effect % Leaf Blight [22, 50]: 5.8%
- Disease Index Prevention Effect % Leaf Blight [22, 51]: 0%
- Disease Index Prevention Effect % Rust [23, 45]: 6.8%
- Disease Index Prevention Effect % Rust [23, 46]: 6.5%
- Disease Index Prevention Effect % Rust [23, 47]: 0%
- Thousand Kernel Weight [24]: 39.2 g and 41.1 g and 39.8 g and 39.5 g
- Disease Index Prevention Effect % Head Blight [25, 35]: 31.6%
- Disease Index Prevention Effect % Head Blight [25, 36]: 28.9%
- Disease Index Prevention Effect % Head Blight [25, 37]: 24.3%
- Disease Index Prevention Effect % Head Blight [25, 38]: 16.9%
- Disease Index Prevention Effect % Head Blight [25, 39]: 5.2%
- Disease Index Prevention Effect % Head Blight [25, 40]: 0%
- Disease Index Prevention Effect % Head Blight [25, 41]: 0%
- Disease Index Prevention Effect % Head Blight [25, 42]: 0%
- Disease Index Prevention Effect % Head Blight [25, 43]: 0%
- Disease Index Prevention Effect % Head Blight [25, 44]: 0%
- Disease Index Prevention Effect % Leaf Blight [26]: 7.8%
- Disease Index Prevention Effect % Powdery Mildew [27, 45]: 12.6%
- Disease Index Prevention Effect % Powdery Mildew [27, 46]: 11.9%
- Disease Index Prevention Effect % Powdery Mildew [27, 47]: 0%
- Disease Index Prevention Effect % Head Blight [28, 31]: 34.2%
- Disease Index Prevention Effect % Head Blight [28, 32]: 10.2%
- Disease Index Prevention Effect % Head Blight [28, 33]: 9.4%
- Disease Index Prevention Effect % Head Blight [28, 34]: 7.4%
- Disease Index Prevention Effect % Head Blight [29, 45]: 32.4%
- Disease Index Prevention Effect % Head Blight [29, 46]: 24.2%
- Disease Index Prevention Effect % Head Blight [29, 47]: 0%
- Disease Index Prevention Effect % Rust [30]: 6.5%
